As a reminder, the Kd is the free concentration of one partner at which half of the binding sites on the other are occupied at equilibrium, for simple one-to-one binding. Lower therefore signals a tighter complex.

The target in the assay is T1, VCP (p97, Valosin-containing protein) (Homo sapiens, UniProt P55072).
T1 construct: Full-length VCP (6xHis-tag)
Kind of assay: SPR. The class given is binding.

The structures appear in SMILES notation.

T1 sequence (P55072 2-806): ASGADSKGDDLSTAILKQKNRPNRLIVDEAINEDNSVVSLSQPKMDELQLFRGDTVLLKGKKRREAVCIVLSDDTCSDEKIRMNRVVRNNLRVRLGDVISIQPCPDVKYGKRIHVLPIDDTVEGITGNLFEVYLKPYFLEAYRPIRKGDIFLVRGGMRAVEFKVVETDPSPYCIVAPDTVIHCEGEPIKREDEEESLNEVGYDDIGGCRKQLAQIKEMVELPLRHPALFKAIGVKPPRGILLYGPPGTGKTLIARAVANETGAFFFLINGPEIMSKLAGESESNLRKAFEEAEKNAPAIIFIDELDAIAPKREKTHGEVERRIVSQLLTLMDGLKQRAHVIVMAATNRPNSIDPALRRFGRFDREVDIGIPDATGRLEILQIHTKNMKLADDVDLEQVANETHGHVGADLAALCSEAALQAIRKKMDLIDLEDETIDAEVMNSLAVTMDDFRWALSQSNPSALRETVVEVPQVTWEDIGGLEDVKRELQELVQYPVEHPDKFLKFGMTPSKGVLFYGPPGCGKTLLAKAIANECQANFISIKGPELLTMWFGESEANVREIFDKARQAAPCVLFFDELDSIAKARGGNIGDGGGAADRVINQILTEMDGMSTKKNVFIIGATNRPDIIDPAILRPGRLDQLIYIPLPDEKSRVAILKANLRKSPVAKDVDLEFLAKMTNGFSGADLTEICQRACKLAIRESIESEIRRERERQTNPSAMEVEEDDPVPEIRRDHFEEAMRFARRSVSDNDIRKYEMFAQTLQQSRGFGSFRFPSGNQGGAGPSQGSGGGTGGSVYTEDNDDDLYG

`Nc1ncnc2c1ncn2[C@@H]1O[C@H](COP(=O)(O)OP(=O)(O)O)[C@@H](O)[C@H]1O` [ADP] yielded a Kd of roughly 0.8 µM.

`COc1cccc2c(NCc3ccccc3)nc(-n3c(N)nc4ccccc43)nc12` [ML240] registered a Kd of 0.23 ± 0.03 µM.

Values taken from article PMC9288506, “Compounds activating VCP D1 ATPase enhance both autophagic and proteasomal neurotoxic protein clearance” (Nature Communications, 2022).
